The values that follow come from US7947692B2, “Substituted thiazolo[5,4-d]pyrimidine urea derivatives” (Hoffmann-La Roche Inc., priority 2006, dated 2011).

A word on the IC50: it is the midpoint of a concentration-inhibition curve. The low end stands for higher potency, the high end for lower potency.

The experiment concerns the target T1, human adenosine A2B receptor (Homo sapiens, UniProt P29275).
T1 construct: expressed in transfected cells; host or cells: CHO.K1
T1 sequence (P29275 1-332): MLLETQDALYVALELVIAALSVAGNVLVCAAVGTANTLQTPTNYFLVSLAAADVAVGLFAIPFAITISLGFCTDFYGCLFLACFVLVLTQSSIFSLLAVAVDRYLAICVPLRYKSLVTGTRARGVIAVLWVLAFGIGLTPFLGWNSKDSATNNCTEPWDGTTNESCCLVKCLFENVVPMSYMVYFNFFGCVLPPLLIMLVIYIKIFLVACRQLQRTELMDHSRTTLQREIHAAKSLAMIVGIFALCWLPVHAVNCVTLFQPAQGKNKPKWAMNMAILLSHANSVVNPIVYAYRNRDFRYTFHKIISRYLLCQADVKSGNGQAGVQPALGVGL
Briefly: Inhibitory activity on NECA-induced cyclic AMP production in CHO.K1 cells expressing human adenosine A2B receptor. Format: cell-based. The following applies: 100 nM NECA, cAMP (HitHunter kit), 30-45 min incubation. The protocol:
Cells were cultured under 5%CO2/95% […] atmosphere at 37° C. in DMEM and D-MEM/F-12 (1:1 mixture) medium (Invitrogen, Grand Island, N.Y.) with 10% fetal calf serum (Invitrogen, Grand Island, N.Y.), 100 U/mL penicillin (Invitrogen, Grand Island, N.Y.), 100 U/mL streptomycin (Invitrogen, Grand Island, N.Y.), 1 mg/mL G418 (Invitrogen, Grand Island N.Y.) and 0.2 mg/mL Hygromycin B (Invitrogen, Carlsbad, Calif.). Experimental cultures were grown overnight as a monolayer in 384-well tissue culture plates (0.06 ml/well-7500 cells/well). Each well was washed once with 0.1 mL of Krebs buffer. To each well was added 50 uL of Krebs buffer containing 100 uM of the phosphodiesterase inhibitor 4-(3-butoxy-4-methoxybenzyl)-2-imidazolidinone, 100 nM NECA (Sigma-Aldrich, St. Louis, Mo.), 0.02% BSA Fraction V (Roche Biochemicals), the test compound (appropriate concentration). The final concentration of DMSO was 1.1%. After incubation for 30-45 min, the wells were emptied and blotted on paper towel to remove residual solution. The HitHunter™ cAMP Assay Kit from DiscoverX for adherent cells (Fremont, Calif.) was used for lysing the cells and measuring cAMP concentrations.
For the compound `COc1ncnc2sc(NC(=O)N3CCC(NCc4ccc(F)c(C(F)(F)F)c4)C3)nc12` (stereo in doubt) [Example 87, (R)-3-(4-Fluoro-3-trifluoromethyl-benzylamino)-pyrrolidine-1-carboxylic acid (7-methoxy-thiazolo[5,4-d]pyrimidin-2-yl)-amide], the IC50 was 2 nM.

`COc1ncnc2sc(NC(=O)N3CCN(Cc4cccc(C(F)(F)F)c4)CC3)nc12` [Example 1, 4-(3-trifluoromethyl-benzyl)-piperazine-1-carboxylic acid (7-methoxy-thiazolo[5,4-d]pyrimidin-2-yl)-amide] returned an IC50 of 5 nM.

Take `COC(=O)c1cccc(CN2CCN(C(=O)Nc3nc4c(OC)ncnc4s3)CC2)c1` [Example 10, 3-[4-(7-Methoxy-thiazolo[5,4-d]pyrimidin-2-ylcarbamoyl)-piperazin-1-ylmethyl]-benzoic acid methyl ester]: the IC50 was 30 nM.

`COc1ncnc2sc(NC(=O)N3CCN(Cc4cccc(OCCO)c4)CC3)nc12` [Example 16, 4-[3-(2-Hydroxy-ethoxy)-benzyl]-piperazine-1-carboxylic acid (7-methoxy-thiazolo[5,4-d]pyrimidin-2-yl)-amide] returned an IC50 of 197 nM.

The compound `COc1ncnc2sc(NC(=O)N3CCN(Cc4cccc(C(=O)O)c4O)CC3)nc12` [Example 27, 2-Hydroxy-3-[4-(7-methoxy-thiazolo[5,4-d]pyrimidin-2-ylcarbamoyl)-piperazin-1-ylmethyl]-benzoic acid] displayed an IC50 of 1560 nM.

The compound `COc1ncnc2sc(NC(=O)N3CCC4(CC3)C(=O)NC[C@H]4c3ccc(F)cc3)nc12` [Example 31, 4-(4-Fluoro-phenyl)-1-oxo-2,8-diazaspiro[4,5]decane-8-carboxylic acid(7-methoxy-thiazolo[5,4-d]pyrimidin-2-yl)-amide] yielded an IC50 of 9 nM.

`COc1ncnc2sc(NC(=O)N3CCC4(CC3)CN(S(C)(=O)=O)c3ccc(Cl)cc34)nc12` [Example 48, 5-Chloro-1,2-dihydro-N-(7-methoxythiazole[5,4-d]pyrimidin-2-yl)-1-(methylsulfonyl)spiro[3H-indole-3,4′-piperidine]-1′-carboxamide]: the 50% inhibitory concentration (IC50) was 9 nM.

`CCOC(=O)C1(Cc2ccc(OC(F)(F)F)cc2)CCCN(C(=O)Nc2nc3c(OC)ncnc3s2)C1` (centres unmarked) [Example 54, 1-(7-Methoxy-thiazolo[5,4-d]pyrimidin-2-ylcarbamoyl)-3-(4-trifluoromethoxy-benzyl)-piperidine-3-carboxylic acid ethyl ester] gave an IC50 of 1460 nM.

In turn, `COc1ncnc2sc(NC(=O)N3CCC(n4c(=O)[nH]c5ccccc54)CC3)nc12` [Example 57, 4-(2-Oxo-2,3-dihydro-benzoimidazol-1-yl)-piperidine-1-carboxylic acid (7-methoxy-thiazolo[5,4-d]pyrimidin-2-yl)-amide] showed an IC50 of 52 nM.

`COc1ncnc2sc(NC(=O)N3CCC(N4CCCC4c4ccccc4)CC3)nc12` (centres unmarked) [Example 62, 4-(2-Phenyl-pyrrolidin-1-yl)-piperidine-1-carboxylic acid (7-methoxy-thiazolo[5,4-d]pyrimidin-2-yl)-amide] came in with an IC50 of 218 nM.

For `COc1ncnc2sc(NC(=O)N3CC=C(c4cccc(C(F)(F)F)c4)CC3)nc12` [Example 67, 4-(3-Trifluoromethyl-phenyl)-3,6-dihydro-2H-pyridine-1-carboxylic acid (7-methoxy-thiazolo[5,4-d]pyrimidin-2-yl)-amide], the IC50 was found to be 51 nM.

In turn, `COC(=O)c1ccccc1S(=O)(=O)C1CCN(C(=O)Nc2nc3c(OC)ncnc3s2)CC1` [Example 76, 2-[1-(7-Methoxy-thiazolo[5,4-d]pyrimidin-2-ylcarbamoyl)-piperidine-4-sulfonyl]-benzoic acid methyl ester] came in with an IC50 of 73 nM.

`COc1ncnc2sc(NC(=O)N3CC[C@H](NC(=O)c4ccc(F)c(C(F)(F)F)c4)C3)nc12` [Example 89, (S)-3-(4-fluoro-3-trifluoromethyl-benzoylamino)-pyrrolidine-1-carboxylic acid (7-methoxy-thiazolo[5,4-d]pyrimidin-2-yl)-amide]: half-maximal inhibition (IC50) required 4 nM.

`COc1ncnc2sc(NC(=O)N3CCc4cc(C(F)(F)F)ccc4C3)nc12` [Example 95, 6-Trifluoromethyl-3,4-dihydro-1H-isoquinoline-2-carboxylic acid (7-methoxy-thiazolo[5,4-d]pyrimidin-2-yl)-amide] yielded an IC50 of 115 nM.
